Assay results published in patent US12501895B2, “Composition for cryopreservation of myocardial cells” (BEIJING BAHEAL WISART MEDICAL RESEARCH CO., LTD, priority 2020, dated 2025).

Tested on: human cardiomyocytes
Assay: ex vivo culture of human cardiomyocytes for 7 days, rod-shaped rate (Example 4)
Assay type: cell-based
Conditions: 5-50 μM PAB versus 10 μM BLEB in M199 basal medium, cultured 7 days at 37° C., FIG. 4
Procedure: The purpose of this experiment was to investigate the effects of BLEB and PAB on cell survival rate and morphology during the ex vivo survival of cardiomyocytes, so as to predict the similarity of their roles during cryopreservation and resuscitation of cardiomyocytes.
10% fetal bovine serum, 100 U/ml penicillin and 100 μg/ml streptomycin were added to the M199 medium (purchased from Sigma Inc.), and the resulting medium was used as a basal medium. The experiments were divided into 6 groups, in which DMSO (as a control group), as well as 10 μM BLEB and 5 μM, 10 μM, 20 μM, and 50 μM PAB were added to the basal medium, respectively. The isolated human cardiomyocytes were divided into 6 groups, and the cells were plated on a 48-well cell culture plate coated with 200 μg/ml laminin in advance using 6 media, and the plate was placed and cultured in a cell incubator (with 5% CO2, and a relative saturated humidity of 95%) at 37° C. for 7 days.

SMILES: Cc1ccc2c(c1)C(=O)[C@]1(O)CCN(c3ccc(N)cc3)C1=N2 [PAB, para-aminoblebbistatin]
- rod-shaped rate of cardiomyocytes: close to or even better than the 10 μM BLEB group
